Measured values taken from US5486469A, “Thermostable Fervidobacterium pullulanases” (Novo Nordisk A/S, priority 1991, dated 1996).
Where two headings read alike, the source gives them in different places.

Molecular target: T1, Fervidobacterium sp. Ven 5, DSM 6204 pullulanase, purified native enzyme (Fervidobacterium pennivorans, UniProt Q9XDB5)
T1 construct: Ven 5; single SDS-PAGE band of 78 kDa; not the E. coli clone PL2125
T1 sequence (Q9XDB5 29-849): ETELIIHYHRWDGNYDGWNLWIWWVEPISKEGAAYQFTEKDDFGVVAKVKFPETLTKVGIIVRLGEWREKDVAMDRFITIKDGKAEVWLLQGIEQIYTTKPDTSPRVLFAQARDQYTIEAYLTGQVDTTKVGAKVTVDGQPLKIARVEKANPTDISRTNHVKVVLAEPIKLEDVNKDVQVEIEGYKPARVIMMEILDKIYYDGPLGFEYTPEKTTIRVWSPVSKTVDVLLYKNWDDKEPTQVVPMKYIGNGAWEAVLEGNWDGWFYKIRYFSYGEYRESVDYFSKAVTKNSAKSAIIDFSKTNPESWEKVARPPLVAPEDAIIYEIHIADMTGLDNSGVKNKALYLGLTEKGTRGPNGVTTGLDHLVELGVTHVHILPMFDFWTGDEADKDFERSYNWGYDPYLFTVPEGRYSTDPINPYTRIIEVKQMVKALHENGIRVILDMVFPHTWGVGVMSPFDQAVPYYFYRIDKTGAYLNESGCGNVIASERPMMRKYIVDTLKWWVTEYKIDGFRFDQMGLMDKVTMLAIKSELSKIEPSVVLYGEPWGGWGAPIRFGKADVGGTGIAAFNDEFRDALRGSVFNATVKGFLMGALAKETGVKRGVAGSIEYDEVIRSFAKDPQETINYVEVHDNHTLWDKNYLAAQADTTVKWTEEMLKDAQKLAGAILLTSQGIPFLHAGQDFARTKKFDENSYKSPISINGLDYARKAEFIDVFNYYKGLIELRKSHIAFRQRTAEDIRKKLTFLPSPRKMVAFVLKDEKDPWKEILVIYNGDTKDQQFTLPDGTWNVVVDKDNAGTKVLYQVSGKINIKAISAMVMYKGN
Assay: Influence of cyclodextrins and EDTA on pullulytic activity (reducing sugars liberated from pullulan)
Assay type: biochemical
Details: for Influence on the pullulytic activity (in words): up to 5 mM
Description: Pullulanase activity was measured by determining the amount of reducing sugars liberated during incubation with pullulan at 85° C. and pH 6.0. The activity of 1 U of pullulanase was defined as that amount of enzyme which liberates 1 μmol of reducing sugar per minute using maltose as a standard. The enzymatic reactions were conducted in 50 mM sodium-phosphate buffer, pH 6.0, the concentration of the substrate was 0.5% (w/v).
The reaction mixture was prepared by adding 50 μl enzyme solution to 200 μl substrate solution. The mixture was incubated at 85° C. for 5 minutes, cooled and diluted with 2.5 ml water. After incubation 250 μl dinitrosalicylic acid reagent (i.e. dinitrosalicylic acid 1 g, 2 N NaOh 20 ml, K-Na-tartrate×4 H2 O 30 g, and distilled water 100 ml) were added. The optical density was measured at 546 nm against a mixture which was not incubated.
6) Influence of metal ions,
The concentration of inhibitors was:
Metal ions and cyclodextrins
The purified pullulanase obtained according to Ex. 2 was subjected to characterization using the method for analyzing pullulanase activity described in Ex. 1.
To investigate the influence of metal ions, cyclodextrins and various glucose polymers on the activity of the pullulanase the purified enzyme was incubated with a 0.5% pullulan solution (pH 6.0) in the presence of up to 5 mM of metal ions and cyclodextrins. Amylose, starch, glycogen, pullulan and branched oligosaccharides were added in concentrations of up to 0.05%.

[1] = pH 6, read-out: Activity (%) of pullulanase in the presence of inhibitor

inhibition at 5000 µM (5 mM inhibitor, 0.5% pullulan solution, pH 6.0, 1.0 U/ml pullulanase, no inhibitor = 100, read-out: Activity (%) of pullulanase in the presence of inhibitor) [%]	Structure (SMILES)	inhibition at 5000 µM [1] [%]	Influence on the pullulytic activity (in words) (0.5% pullulan solution, pH 6.0)
–	OCC1OC2OC3C(CO)OC(OC4C(CO)OC(OC5C(CO)OC(OC6C(CO)OC(OC7C(CO)OC(OC1C(O)C2O)C(O)C7O)C(O)C6O)C(O)C5O)C(O)C4O)C(O)C3O (stereo not drawn) [α-Cyclodextrin]	57	decreased the activity of the enzyme slightly
4	OCC1OC2OC3C(CO)OC(OC4C(CO)OC(OC5C(CO)OC(OC6C(CO)OC(OC7C(CO)OC(OC8C(CO)OC(OC1C(O)C2O)C(O)C8O)C(O)C7O)C(O)C6O)C(O)C5O)C(O)C4O)C(O)C3O (stereo not drawn) [β-Cyclodextrin]	–	inhibited completely
–	O=C(O)CN(CCN(CC(=O)O)CC(=O)O)CC(=O)O [EDTA]	100	did not influence the pullulytic activity
